Data reported in patent US10912776B2, “Methods of treating cancer” (Corvus Pharmaceuticals, Inc., priority 2015, dated 2021).
Where “and” joins values, the source holds several entries; their conditions need not be identical. Equal entries are not always repeated. Entries after “also recorded” stand apart in the source; their conditions may differ.

Legend:
[1] = tested on: MC38 cells; test: XTT cell viability/proliferation, MC38; type: cell-based, mouse; settings: 10 µM to 1 pM, 24 hours
Protocol: (§1) Staurosporine, a well-characterized inducer of apoptosis, was included as a positive control for cell death. Cell viability/proliferation was measured by XTT. In this assay, XTT salts are cleaved by metabolically active (viable) cells, thereby producing a colorimetric change in the culture media that can be quantified by measuring absorbance at 405 nm and 620 nm on a spectrophotometer.

[2] = tested on: CT26 cells; test: XTT cell viability/proliferation, CT26; type: cell-based, mouse; settings: 10 µM to 1 pM, 24 hours
Protocol: as §1

[3] = tested on: EL4 cells; test: XTT cell viability/proliferation, EL4; type: cell-based, mouse; settings: 10 µM to 1 pM, 24 hours
Protocol: as §1

[4] = tested on: EL4 cells; test: Syngeneic EL4 mouse lymphoma model; type: in vivo; settings: 10, 30, 100 mg/kg daily oral gavage
Protocol: Syngeneic C57BL/6 female mice (8-10 weeks old) were injected (via subcutaneous route) with EL4 cells.

[5] = tested on: MC38 colon cancer cells; test: Syngeneic MC38 mouse colon carcinoma model, CPI-444 dose response and rechallenge; type: in vivo
Excerpt: 100% protected from rechallenge. […] These mice were challenged with the new engraftment of MC38 tumor cells.
MC38 colon cancer cells were subcutaneously injected onto the backs of syngeneic C57BL/6 mice.

[6] = tested on: MC38 mouse colon cancer cells; test: Syngeneic MC38 mouse colon cancer model, CPI-444 in combination with anti-PD-L1; type: in vivo
Excerpt: Combo eliminates tumors in 50% of mice. […] Treatment continued for 12 days.
FIGS. 16A and 16B: MC38 Model: Established tumors eliminated in 8/9 mice.
Treatment continued for more than 9 days (FIG. 23C). […] T cell depletion was verified by flow analysis. FIGS. 23A and 23B show the tumor volume at different time points since engraftment for the dosing cohorts.
Treatment continued for 12 days. […] T cell depletion was verified by flow analysis. FIGS. 23A and 23B show tumor volume at different time points since engraftment for the dosing cohorts.
Treatment continued for more than 9 days. […] T cell depletion was verified by flow analysis. FIGS. 23A and 23B show tumor volume at different time points since engraftment for the dosing cohorts.

[7] = Phase 1/1b clinical trial in solid tumor patients (safety, efficacy, blood biomarkers); type: in vivo, human
Protocol: FIGS. 19A and 19B: T Cell activation in treated subjects. Whole blood was collected on Day 1 of Cycles 1, 2, 4 & 8 for flow analysis. The percentage of CD4 and CD8 T cells that stained PD-1+(FIG. 19A) or CD45RA− (memory/effector cells) (FIG. 19B) is shown. Each line represents a single subject across time.
Whole blood was collected on Day 1 of Cycles 1 and 2 and PBMCs were prepared. DNA was extracted from PBMCs and sequenced for TCRβ repertoire by Adaptive Biotechnologies. […] Morisita Index measures T cell repertoir similarity comparing pre- and post-dose PBMCs. A Morisita Index of 1 is equal to identity, indicating no longitudinal change. Morisita Index distribution in single agent and combination cohorts (FIG. 20B). Graph showing Morisita Index by cohort (FIG. 20C). […] Changes were driven predominantly by TCR clone expansion (clonality).
After a dose selection stage, pts are treated in 10 disease specific cohorts (5 single agent and 5 combination). Cohorts may be expanded based on response criteria: complete response, partial response or stable disease (SD). Biomarkers are evaluated including immune cells by flow cytometry in peripheral blood and pre/post treatment tumor biopsies as well as adenosine pathway modulation by immunohistochemistry and gene expression.
In step 1 of the trial, patients were dosed with either 100 mg BID for 14 days out of a 28 day cycle, 100 mg BID for 28 days, 200 mg QD for 14 days or 50 mg or 100 mg BID for 14 days in combination with […]® (840 mg Q2W). Pharmacodynamic analysis was conducted on peripheral blood cells to inform dose selection. Step 1 of Phase1/1b was fully enrolled (n=48) and dose was selected (100 mg BID) based on pharmacodynamic analysis of A2AR pathway.

[8] = non-oncology indications; 75 subjects; cited from earlier work
[9] = biological target: T1, A2AR (Homo sapiens, UniProt P29274); test: pERK levels in human CD4+ T cells after TCR cross-linking; settings: NECA 1 μM
T1 sequence (P29274 whole entry): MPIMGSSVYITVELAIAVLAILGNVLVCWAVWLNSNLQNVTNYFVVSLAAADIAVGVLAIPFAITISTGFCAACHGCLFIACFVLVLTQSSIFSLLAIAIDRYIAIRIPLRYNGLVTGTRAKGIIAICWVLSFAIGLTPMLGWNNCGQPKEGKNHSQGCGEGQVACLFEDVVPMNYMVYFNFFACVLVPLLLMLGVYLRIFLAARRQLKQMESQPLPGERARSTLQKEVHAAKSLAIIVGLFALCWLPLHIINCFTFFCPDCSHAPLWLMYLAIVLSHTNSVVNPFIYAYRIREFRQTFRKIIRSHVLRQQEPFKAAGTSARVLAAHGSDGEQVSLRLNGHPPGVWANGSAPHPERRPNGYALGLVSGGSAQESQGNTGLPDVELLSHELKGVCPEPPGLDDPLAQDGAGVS

[10] = biological target: T1, A2AR; test: NECA-induced phospho-CREB in fresh PBMCs (B cell population); settings: primarily B cell population
[11] = tested on: CT26 mouse colon cancer cells; settings: CPI-444 100 mg/kg oral; anti-PD-1 100 ug/mouse i.p.
Excerpt: CT26 mouse colon cancer cells were engrafted onto the back of syngeneic male Balb/c mice. […] Treatment continued for 12 days.

[12] = biological target: T1, A2AR; test: cAMP production in primary human T cells stimulated with NECA (LANCE Ultra cAMP); type: cell-based; set-up: Blood samples were derived from patients and processed using the following protocol; endogenous in cells; host or cells: whole blood B cells and T cells of treated subjects
Protocol: Adenosine signaling through A2AR leads to increases in the levels of cAMP.
T cells were isolated from human PBMC by negative selection and activated via CD3/CD28 stimulation for 48 hours to induce A2AR expression. Stimulated T cells were then “rested” for 24 hours by removal of CD3/CD28 stimulation in order to minimize background levels of cAMP.

[13] = biological target: T1, A2AR; test: IL-2 and IFNγ secretion from activated primary human PBMCs (AlphaLISA); type: cell-based; set-up: Blood samples were derived from patients and processed using the following protocol; endogenous in cells; host or cells: whole blood B cells and T cells of treated subjects; settings: CPI-444 1 μM; NECA or CGS21680 1 μM; anti-CD3/anti-CD28 48 hours
Protocol: Purified anti-CD3 and anti-CD28 monoclonal antibodies (1 ug/ml) were then added to activate T cells for 48 hours.
Purified anti-CD3 and anti-CD28 monoclonal antibodies (1 ug/ml) were then added to activate T cells for 48 hours. In this study, AlphaLISA assays (PerkinElmer) analyzed on an EnVision MultiLabel Reader were used to measure cytokine release according to the manufacturer's instructions.

[14] = biological target: T1, A2AR; test: NECA-induced pCREB in whole blood B cells and T cells of treated subjects (flow cytometry); type: in vivo; set-up: Blood samples were derived from patients and processed using the following protocol; endogenous in cells; host or cells: whole blood B cells and T cells of treated subjects
Protocol: Control samples were treated with phorbol myristate acetate (PMA).
[…] control samples were treated with phorbol myristate acetate (PMA).
On day 14, blood was collected prior to dosing (0 hr, trough) and for a time course post-dose (1.5, 3, 5.5, 8 hr) (FIGS. 26-28). The level of signaling was determined and the percent inhibition on Day 14 compared to Day 1 pre-treatment was calculated.

## Cc1ccc(-c2nc(N)nc3c2nnn3Cc2cccc(COC3CCOC3)n2)o1 (stereo not drawn) [CPI-444]
[1]
  Specific Absorbance (XTT cell viability/proliferation): No significant decrease in the Specific Absorbance
[2]
  Specific Absorbance (XTT cell viability/proliferation): No significant decrease in the Specific Absorbance
[3]
  Specific Absorbance (XTT cell viability/proliferation): No significant decrease in the Specific Absorbance
[4]
  tumor growth in regional lymph nodes (number and size of enlarged nodes): significant dose-dependent inhibition of tumor growth within regional lymph nodes; also recorded: significant, dose-dependent decrease in the number and size of enlarged regional lymph nodes; also recorded: Inhibits EL4 Tumor Growth In Regional Lymph Nodes
[5]; 1 mg/kg daily oral gavage for 28 days
  tumor growth: did not inhibit tumor growth
[5]; 10 mg/kg daily oral gavage for 28 days
  tumor growth: significantly inhibits the growth; also recorded: significant inhibition of tumor growth
[5]; 100 mg/kg daily oral gavage for 28 days
  tumor growth: significantly inhibits the growth; also recorded: significant inhibition of tumor growth
[5]; CPI-444 dose response study
  mice with tumors eliminated: 30%
[5]; all cohorts (1, 10, 100 mg/kg)
  complete tumor regression: complete tumor regression was observed in a subset of mice within all cohorts
[5]; cured mice, no additional CPI-444 treatment
  tumor growth after rechallenge with MC38 cells: fully inhibited; also recorded: fully rejected in all 9 mice
[5]; daily CPI-444 1, 10, 100 mg/kg
  inhibition of tumor growth (dose response): dose-dependent inhibition of tumor growth; also recorded: Inhibits Growth of MC38 Tumors
[5]; new engraftment of MC38 cells, no additional CPI-444 treatment
  mice protected from rechallenge: 100%
[5]; nine mice with complete tumor growth inhibition
  reoccurrence during additional 6 weeks monitoring: No tumor growth was observed
[6]; CPI-444 100 mg/kg from Day 0, anti-PD-L1 200 ug/mouse
  tumor eradication: not completely eradicated
[6]; CPI-444 100 mg/kg oral from Day 0 for 12 days, anti-PD-L1 mAb 10F.9G2 200 ug/mouse i.p. days 7, 10, 13, 16
  tumor growth: inhibition of tumor growth
[6]; CPI-444 100 mg/kg, anti-PD-L1 200 ug/mouse
  dependence of efficacy on CD8+ T cells (T cell depletion with Anti-mCD4 / Anti-mCD8): CD8+ T cells are required for the efficacy
[6]; FIGS. 14A and 14B title
  mice with tumors eliminated: 30%
[6]; mouse, in vivo
  levels of immune checkpoints (GITR, OX40, LAG3) on tumor infiltrating lymphocytes and circulating T cells: modulated
[7]; 2 pts (1 combination and 1 single agent), unconfirmed at 2 months
  first efficacy assessment by CT: both demonstrated SD
[7]; 7 pts treated to date
  tolerability / treatment related adverse events: well tolerated with no Grade 3 or 4 treatment related adverse events; also recorded: well tolerated
[7]; Nivolumab-refractory lung cancer patient, 100 mg po BID×28 days/cycle
  tumor response: Tumor regression
[7]; TCRβ sequencing of PBMCs, Day 1 of Cycles 1 and 2
  TCR repertoire changes in peripheral blood: TCR repertoire changes were induced; also recorded: robust changes in TCR repertoire in some patients
[7]; flow analysis of whole blood
  activated (PD-1+) CD8 cell frequencies in blood: Increases in activated CD8 cell frequencies
  memory (CD45RA−) cell frequencies in blood: increases
[7]; single agent CPI-444
  T cell clone expansion / clonality: Expansion of pre-existing and new T cell clones; also recorded: increased clonality
[7]; the two pts with SD
  increase in PD-1+CD8+ cells in peripheral blood compared to baseline: 1.7 fold and 2.4 fold
[8]
  tolerability: well tolerated; also recorded: well tolerated with no significant adverse events noted
[9]
  pERK levels / ERK signaling in CD4+ T cells in the presence of NECA: restored pERK levels in a dose-dependent manner; also recorded: Restores pERK
[10]
  inhibition of NECA-induced CREB phosphorylation: completely inhibited; also recorded: Prevents pCREB Induction in B Cells
[11]
  tumor eradication / elimination: not completely eradicated
[12]; FIG. 6
  cAMP production upon NECA stimulation, CPI-444 dose dependence: prevented cAMP production upon NECA stimulation in a dose-dependent manner; also recorded: Inhibits cAMP Production
[12]; all levels of NECA tested (10^-5 to 10^-9 M), 10 minutes
  production of cAMP upon NECA treatment: completely blocked the production of cAMP
[13]
  IFNγ secretion in presence of A2AR agonist: restored IL-2 and IFNγ secretion back to levels observed in the absence of exogenous adenosine signaling
  IL-2 secretion in presence of A2AR agonist: restored IL-2 and IFNγ secretion back to levels observed in the absence of exogenous adenosine signaling
[14]; 50 mg BID, Day 14
  inhibition of NECA-induced pCREB: Variable inhibition; also recorded: not high enough for sustained inhibition
[14]; 100 mg BID
  change in pCREB percent inhibition between trough (0 hr) and peak (3 hr): Little fluctuation from trough to peak
[14]; 100 mg BID single agent, Day 14
  patients with complete and sustained inhibition of NECA-induced pCREB: 7 of 7
[14]; 100 mg BID, Day 14
  inhibition of pCREB / A2AR pathway: high pCREB inhibition at trough and near complete inhibition after taking their morning dose; also recorded: highest pCREB inhibition at trough and near complete inhibition after taking their morning dose
[14]; 200 mg QD, Day 14
  inhibition of NECA-induced pCREB: Variable inhibition; also recorded: achieves high peak levels but is not maintained at trough; also recorded: partial inhibition; also recorded: attenuated
[14]; B cells
  CPI-444 plasma levels with near complete inhibition of pCREB in B cells: greater than 2,000 ng/mL
[14]; T cells
  CPI-444 plasma levels with near complete inhibition of pCREB in CD4+ T cells: greater than 2,000 ng/mL
[14]; plasma CPI-444
  CPI-444 exposures at which the A2AR pathway is completely inhibited: greater than 2000 ng/mL
